# Laboratory results published in US10654847B2, “Substituted 2-(4-heterocyclylbenzyl)isoindolin-1-one analogs as positive allosteric modulators of the muscarinic acetylcholine receptor M1” (Vanderbilt University, priority 2011, dated 2020).
# Target: T1, mAChR M1 (UniProt P11229)
# T1 sequence (P11229 1-460): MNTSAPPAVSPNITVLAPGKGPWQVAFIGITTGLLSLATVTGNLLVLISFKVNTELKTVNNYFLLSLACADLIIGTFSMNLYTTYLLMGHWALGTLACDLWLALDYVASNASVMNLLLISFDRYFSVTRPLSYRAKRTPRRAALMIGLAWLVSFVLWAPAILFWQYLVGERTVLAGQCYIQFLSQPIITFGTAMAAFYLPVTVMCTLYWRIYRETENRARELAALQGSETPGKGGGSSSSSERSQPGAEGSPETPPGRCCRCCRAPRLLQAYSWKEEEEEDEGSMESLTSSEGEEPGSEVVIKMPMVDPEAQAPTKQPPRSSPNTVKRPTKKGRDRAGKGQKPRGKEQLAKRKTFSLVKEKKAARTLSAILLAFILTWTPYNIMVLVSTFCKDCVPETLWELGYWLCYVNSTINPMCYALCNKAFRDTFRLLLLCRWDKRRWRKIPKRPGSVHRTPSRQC
# Test: mAChR M1 cell-based functional assay (calcium mobilization, potentiation of EC20 acetylcholine response)
# Conditions: % ACh maximum at 30 μM; mAChR M1-expressing CHO-K1 cells, calcium flux
# Procedure: Chinese hamster ovary (CHO-K1) cells stably expressing rat (r)M1 were purchased from the American Type Culture Collection and cultured according to their indicated protocol. […] To make stable rM2, hM2, rM3, hM4, and rM4 cell lines for use in calcium mobilization assays, these cells also were stably transfected with a chimeric G-protein (Gqi5) (provided by B. R. Conklin, University of California, San Francisco) using Lipofectamine 2000. rM1, hM1, rM3, hM3, rM5, and hM5 cells were grown in Ham's F-12 medium containing 10% heat-inactivated fetal bovine serum (FBS), 20 mM HEPES, and 50 μg/mL G418 sulfate. rM2-Gqi5, hM2-Gqi5, and hM4-Gqi5 cells were grown in the same medium also containing 500 μg/mL Hygromycin B. Stable rM4-Gqi5 cells were grown in DMEM containing 10% heat-inactivated FBS, 20 mM HEPES, 400 μg/mL G418 sulfate, and 500 μg/mL Hygromycin B.
# For high throughput measurement of agonist-evoked increases in intracellular calcium, CHO-K1 cells stably expressing muscarinic receptors were plated in growth medium lacking G418 and hygromycin at 15,000 cells/20 μL/well in Greiner 384-well black-walled, tissue culture (TC)-treated, clear-bottom plates (VWR). Cells were incubated overnight at 37° C. and 5% CO2. […] Compound master plates were formatted in an 11 point CRC format (1:3 dilutions) in 100% DMSO with a starting concentration of 10 mM using the BRAVO liquid handler (Agilent). Test compound CRCs were then transferred to daughter plates (240 nL) using the Echo acoustic plate reformatter (Labcyte, Sunnyvale, Calif.) and then diluted into assay buffer (40 μL) to a 2× stock using a Thermo Fisher Combi (Thermo Fisher Scientific, Waltham, Mass.).
# Calcium flux was measured using the Functional Drug Screening System (FDSS) 6000 (Hamamatsu Corporation, Tokyo, Japan) as an increase in the fluorescent static ratio. Compounds were applied to cells (20 μL, 2×) using the automated system of the FDSS 6000 at 4 s into the 300 s protocol and the data were collected at 1 Hz. […] Agonist activity was analyzed as a concentration-dependent increase in calcium mobilization upon compound addition. Positive allosteric modulator activity was analyzed as a concentration-dependent increase in the EC20 acetylcholine response. Antagonist activity was analyzed as a concentration-dependent decrease in the EC80 acetylcholine response. Concentration-response curves were generated using a four-parameter logistical equation in XLfit curve fitting software (IDBS, Bridgewater, N.J.) for Excel (Microsoft, Redmond, Wash.) or Prism (GraphPad Software, Inc., San Diego, Calif.).
# The above described assay was also operated in a second mode where an appropriate fixed concentration of the present compounds were added to the cells after establishment of a fluorescence baseline for about 3 seconds, and the response in cells was measured. […] Data were reduced as described above and the EC50 values for the agonist in the presence of test compound were determined by nonlinear curve fitting. A decrease in the EC50 value of the agonist with increasing concentrations of the present compounds (a leftward shift of the agonist concentration-response curve) is an indication of the degree of muscarinic positive allosteric modulation at a given concentration of the present compound. An increase in the EC50 value of the agonist with increasing concentrations of the present compounds (a rightward shift of the agonist concentration response curve) is an indication of the degree of muscarinic antagonism at a given concentration of the present compound. The second mode also indicates whether the present compounds also affect the maximum response of the muscarinic receptor to agonists.
# The calcium mobilization assay was also used to determine “efficacy”.
row,SMILES,Emax (%)
1,Cn1cc(-c2ccc(CN3Cc4ccccc4S3(=O)=O)c(F)c2)cn1 [Example B23],63
2,Cn1ncc2ccc(-c3ccc(CN4Cc5ccccc5C4=O)c(F)c3)cc21 [Example B24],64
3,Cn1cc(-c2ccc(CN3Cc4cccnc4C3=O)c(F)c2)cn1 [Example B25],66
4,O=C1c2cccnc2CN1Cc1ccc(-c2ccc3cc[nH]c3c2)cc1F [Example B28],34
5,O=C1c2cccnc2CN1Cc1ccc(-c2ccc(Cl)nc2)cc1F [Example B30],40
6,O=C1c2cccnc2CN1Cc1ccc(-c2cncc(Cl)c2)cc1F [Example B31],35
7,COc1ncccc1-c1ccc(CN2Cc3ncccc3C2=O)c(F)c1 [Example B33],31
8,Cc1cc(-c2ccc(CN3Cc4ncccc4C3=O)c(F)c2)cnc1F [Example B34],37
9,O=C1c2cccnc2CN1Cc1ccc(-c2cccc3cccnc23)cc1F [Example B38],26
10,O=C1c2cccnc2CN1Cc1ccc(-c2ccncc2)cc1F [Example B41],70
11,O=C1c2cccnc2CN1Cc1ccc(-c2cccc3ncccc23)cc1F [Example B42],41
12,COc1cncc(-c2ccc(CN3Cc4ncccc4C3=O)c(F)c2)c1 [Example B43],47

# Now from value to molecule:
row,Emax (%),SMILES
1,58,Cn1ncc2cc(-c3ccc(CN4Cc5ncccc5C4=O)c(F)c3)ccc21 [Example B27]
2,58,Cn1ncc2c(-c3ccc(CN4Cc5ncccc5C4=O)c(F)c3)cccc21 [Example B29]
3,74,Cn1cc2c(-c3ccc(CN4Cc5ncccc5C4=O)c(F)c3)cccc2n1 [Example B32]
4,80,Cn1cc2ccc(-c3ccc(CN4Cc5ncccc5C4=O)c(F)c3)cc2n1 [Example B35]
5,58,O=C1c2cccnc2CN1Cc1ccc(-c2ccc3[nH]ncc3c2)cc1F [Example B36]
6,31,O=C1c2cccnc2CN1Cc1ccc(-c2cnc3ccccc3c2)cc1F [Example B37]
7,31,CN(C)c1ccc(-c2ccc(CN3Cc4ncccc4C3=O)c(F)c2)cn1 [Example B39]
8,70,O=C1c2cccnc2CN1Cc1ccc(-c2ccc3cn[nH]c3c2)cc1F [Example B40]
9,65,O=C1c2cccnc2CN1Cc1ccc(-c2ccc3cnccc3c2)cc1F [Example B44]

# Same assay, conditions: positive allosteric modulation of EC20 ACh response, mAChR M1 CHO-K1 cells; <5 estimated where no plateau
row,SMILES,pEC50
1,Cn1cc(-c2ccc(CN3Cc4ccccc4S3(=O)=O)c(F)c2)cn1 [Example B23],<5.00
2,Cn1ncc2ccc(-c3ccc(CN4Cc5ccccc5C4=O)c(F)c3)cc21 [Example B24],<5.00
3,Cn1cc(-c2ccc(CN3Cc4cccnc4C3=O)c(F)c2)cn1 [Example B25],<5.00
4,O=C1c2cccnc2CN1Cc1ccc(-c2ccc3cc[nH]c3c2)cc1F [Example B28],<5.00
5,O=C1c2cccnc2CN1Cc1ccc(-c2ccc(Cl)nc2)cc1F [Example B30],5.46
6,O=C1c2cccnc2CN1Cc1ccc(-c2cncc(Cl)c2)cc1F [Example B31],5.34
7,COc1ncccc1-c1ccc(CN2Cc3ncccc3C2=O)c(F)c1 [Example B33],<5.00
8,Cc1cc(-c2ccc(CN3Cc4ncccc4C3=O)c(F)c2)cnc1F [Example B34],5.60
9,O=C1c2cccnc2CN1Cc1ccc(-c2cccc3cccnc23)cc1F [Example B38],<5.00
10,O=C1c2cccnc2CN1Cc1ccc(-c2ccncc2)cc1F [Example B41],5.33
11,O=C1c2cccnc2CN1Cc1ccc(-c2cccc3ncccc23)cc1F [Example B42],5.44
12,COc1cncc(-c2ccc(CN3Cc4ncccc4C3=O)c(F)c2)c1 [Example B43],<5.00

# Now from value to molecule:
row,pEC50,SMILES
1,6.1,Cn1ncc2cc(-c3ccc(CN4Cc5ncccc5C4=O)c(F)c3)ccc21 [Example B27]
2,5.80,Cn1ncc2c(-c3ccc(CN4Cc5ncccc5C4=O)c(F)c3)cccc21 [Example B29]
3,6.07,Cn1cc2c(-c3ccc(CN4Cc5ncccc5C4=O)c(F)c3)cccc2n1 [Example B32]
4,5.71,Cn1cc2ccc(-c3ccc(CN4Cc5ncccc5C4=O)c(F)c3)cc2n1 [Example B35]
5,6.28,O=C1c2cccnc2CN1Cc1ccc(-c2ccc3[nH]ncc3c2)cc1F [Example B36]
6,6.41,O=C1c2cccnc2CN1Cc1ccc(-c2cnc3ccccc3c2)cc1F [Example B37]
7,5.98,CN(C)c1ccc(-c2ccc(CN3Cc4ncccc4C3=O)c(F)c2)cn1 [Example B39]
8,6.13,O=C1c2cccnc2CN1Cc1ccc(-c2ccc3cn[nH]c3c2)cc1F [Example B40]
9,6.04,O=C1c2cccnc2CN1Cc1ccc(-c2ccc3cnccc3c2)cc1F [Example B44]

# Same assay, conditions: positive allosteric modulation of EC20 ACh response, mAChR M1 CHO-K1 cells; >10 μM estimated where no plateau; read-out: EC50
row,SMILES,EC50 [nM]
1,Cn1cc(-c2ccc(CN3Cc4ccccc4S3(=O)=O)c(F)c2)cn1 [Example B23],> 10000
2,Cn1ncc2ccc(-c3ccc(CN4Cc5ccccc5C4=O)c(F)c3)cc21 [Example B24],> 10000
3,Cn1cc(-c2ccc(CN3Cc4cccnc4C3=O)c(F)c2)cn1 [Example B25],> 10000
4,O=C1c2cccnc2CN1Cc1ccc(-c2ccc3cc[nH]c3c2)cc1F [Example B28],> 10000
5,O=C1c2cccnc2CN1Cc1ccc(-c2ccc(Cl)nc2)cc1F [Example B30],3470
6,O=C1c2cccnc2CN1Cc1ccc(-c2cncc(Cl)c2)cc1F [Example B31],4570
7,COc1ncccc1-c1ccc(CN2Cc3ncccc3C2=O)c(F)c1 [Example B33],> 10000
8,Cc1cc(-c2ccc(CN3Cc4ncccc4C3=O)c(F)c2)cnc1F [Example B34],2510
9,O=C1c2cccnc2CN1Cc1ccc(-c2cccc3cccnc23)cc1F [Example B38],> 10000
10,O=C1c2cccnc2CN1Cc1ccc(-c2ccncc2)cc1F [Example B41],4680
11,O=C1c2cccnc2CN1Cc1ccc(-c2cccc3ncccc23)cc1F [Example B42],3630
12,COc1cncc(-c2ccc(CN3Cc4ncccc4C3=O)c(F)c2)c1 [Example B43],> 10000

# Molecules with a lower EC50, results first:
row,EC50 [nM],SMILES
1,794,Cn1ncc2cc(-c3ccc(CN4Cc5ncccc5C4=O)c(F)c3)ccc21 [Example B27]
2,1590,Cn1ncc2c(-c3ccc(CN4Cc5ncccc5C4=O)c(F)c3)cccc21 [Example B29]
3,851,Cn1cc2c(-c3ccc(CN4Cc5ncccc5C4=O)c(F)c3)cccc2n1 [Example B32]
4,1950,Cn1cc2ccc(-c3ccc(CN4Cc5ncccc5C4=O)c(F)c3)cc2n1 [Example B35]
5,525,O=C1c2cccnc2CN1Cc1ccc(-c2ccc3[nH]ncc3c2)cc1F [Example B36]
6,389,O=C1c2cccnc2CN1Cc1ccc(-c2cnc3ccccc3c2)cc1F [Example B37]
7,1050,CN(C)c1ccc(-c2ccc(CN3Cc4ncccc4C3=O)c(F)c2)cn1 [Example B39]
8,741,O=C1c2cccnc2CN1Cc1ccc(-c2ccc3cn[nH]c3c2)cc1F [Example B40]
9,912,O=C1c2cccnc2CN1Cc1ccc(-c2ccc3cnccc3c2)cc1F [Example B44]
